Data from ChEMBL document CHEMBL6103619, “Discovery of a Novel CRBN-Recruiting cGAS PROTAC Degrader for the Treatment of Ulcerative Colitis” (J Med Chem, 2025).
Active and inactive are the calls of the source. The calls are words filed in the database; no cut-off is given here.

Assays:
Assay type in all cases: cell-based
[1] = target: T1, Protein cereblon/Cyclic GMP-AMP synthase (Homo sapiens, UniProt Q96SW2+Q8N884); test: PROTAC activity at CRBN/cGAS in human THP-1 cells assessed as induction of cGAS degradation at 10 uM preincubated with compound for 40 hrs followed by HT-DNA stimulation and measured after 8 hrs by Western blot analysis relative to control; conditions: time 48.0 hrs
[2] = Inhibition of dsDNA-induced cGAS signaling pathway in human THP1-Lucia ISG cells preincubated with compound for 24 hrs followed by HT-DNA addition and measured after 24 hrs by QUANTI-Luc luciferase reagent based assay
[3] = Inhibition of dsDNA-induced cGAS signaling pathway in mouse RAW-Lucia ISG cells preincubated with compound for 24 hrs followed by HT-DNA addition and measured after 24 hrs by QUANTI-Luc luciferase reagent based assay
[4] = target: T1, Protein cereblon/Cyclic GMP-AMP synthase; test: PROTAC activity at CRBN/cGAS in human THP-1 cells assessed as induction of cGAS degradation at 10 uM incubated for 48 hrs by Western blot analysis
[5] = tested on: THP-1; test: Induction of cGAS degradation in human THP-1 cells at 10 uM preincubated with compound for 40 hrs followed by HT-DNA stimulation and measured after 8 hrs by Western blot analysis relative to control; conditions: time 48.0 hrs

T1 sequence (Q8N884 whole entry, looked up): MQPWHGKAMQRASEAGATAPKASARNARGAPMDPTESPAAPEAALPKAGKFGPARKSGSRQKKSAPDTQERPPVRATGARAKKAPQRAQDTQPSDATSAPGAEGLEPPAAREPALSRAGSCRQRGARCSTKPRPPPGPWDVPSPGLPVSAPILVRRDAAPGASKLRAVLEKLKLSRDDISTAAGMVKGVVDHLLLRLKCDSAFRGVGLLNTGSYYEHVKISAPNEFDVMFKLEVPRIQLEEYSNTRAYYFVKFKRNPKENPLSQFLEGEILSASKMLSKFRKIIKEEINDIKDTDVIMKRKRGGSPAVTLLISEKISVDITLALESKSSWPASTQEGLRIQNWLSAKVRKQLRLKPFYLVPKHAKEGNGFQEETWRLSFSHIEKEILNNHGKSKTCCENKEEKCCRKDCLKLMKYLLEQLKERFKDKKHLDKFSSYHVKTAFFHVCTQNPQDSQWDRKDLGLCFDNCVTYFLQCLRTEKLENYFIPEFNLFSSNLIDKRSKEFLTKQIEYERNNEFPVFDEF
T1 sequence (Q96SW2 whole entry, looked up): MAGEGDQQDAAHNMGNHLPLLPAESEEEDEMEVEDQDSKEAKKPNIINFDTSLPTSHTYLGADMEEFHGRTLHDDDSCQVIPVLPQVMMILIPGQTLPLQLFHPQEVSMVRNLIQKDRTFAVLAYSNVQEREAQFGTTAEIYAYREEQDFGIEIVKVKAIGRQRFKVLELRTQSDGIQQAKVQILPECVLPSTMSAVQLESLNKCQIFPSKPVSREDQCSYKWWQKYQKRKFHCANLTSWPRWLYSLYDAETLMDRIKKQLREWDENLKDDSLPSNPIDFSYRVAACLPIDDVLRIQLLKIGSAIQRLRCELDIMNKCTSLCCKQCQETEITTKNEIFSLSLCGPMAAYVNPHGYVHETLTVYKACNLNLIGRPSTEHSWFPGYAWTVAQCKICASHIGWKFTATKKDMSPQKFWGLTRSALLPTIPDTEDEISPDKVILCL

Row | SMILES | Activity [1] [%] | IC50 [2] [µM] | IC50 [3] [µM] | Activity [4] | Activity [5] [%]
1 | Cn1ccc(-c2cc(Cl)c(Cl)c3[nH]c4c(c23)CN(C(=O)CNC(=O)CCCCC#Cc2cccc3c2C(=O)N(C2CCC(=O)NC2=O)C3=O)CC4)n1 (centres undefined) | 48.5 | 18.9 | > 50 | – | –
2 | O=C1CCC(N2C(=O)c3cccc(NCCCCCCCC(=O)N4CCC(Cn5cc(-c6cc(Cl)c(Cl)c7[nH]c8c(c67)CN(C(=O)CO)CC8)cn5)CC4)c3C2=O)C(=O)N1 (centres undefined) | 35.6 | > 50 | > 50 | – | –
3 | CN1C(=O)CCC(N2Cc3c(C#CCCCC(=O)NCC(=O)N4CCc5[nH]c6c(Cl)c(Cl)cc(-c7ccn(C)n7)c6c5C4)cccc3C2=O)C1=O (centres undefined) | – | – | – | inactive | –
4 | Cn1ccc(-c2cc(Cl)c(Cl)c3[nH]c4c(c23)CN(C(=O)CNC(=O)CCCCCCNc2cccc3c2C(=O)N(C2CCC(=O)NC2=O)C3=O)CC4)n1 (centres undefined) | 55.1 | 16.3 | 28.3 | – | –
5 | Cn1ccc(-c2cc(Cl)c(Cl)c3[nH]c4c(c23)CN(C(=O)CCCCCCC#Cc2cccc3c2CN(C2CCC(=O)NC2=O)C3=O)CC4)n1 (centres undefined) | 44.7 | 28.8 | > 50 | – | –
6 | Cn1ccc(-c2cc(Cl)c(Cl)c3[nH]c4c(c23)CN(C(=O)CCCCC#Cc2cccc3c2CN(C2CCC(=O)NC2=O)C3=O)CC4)n1 (centres undefined) | 45.1 | 28.4 | > 50 | – | –
7 | O=C1CCC(N2C(=O)c3cccc(NCCCCCCCCC(=O)N4CC(Cn5cc(-c6cc(Cl)c(Cl)c7[nH]c8c(c67)CN(C(=O)CO)CC8)cn5)C4)c3C2=O)C(=O)N1 (centres undefined) | 21.2 | > 50 | > 50 | – | –
8 | Cn1ccc(-c2cc(Cl)c(Cl)c3[nH]c4c(c23)CN(C(=O)CNC(=O)CCNc2cccc3c2C(=O)N(C2CCC(=O)NC2=O)C3=O)CC4)n1 (centres undefined) | 42 | 35.1 | > 50 | – | –
9 | Cn1ccc(-c2cc(Cl)c(Cl)c3[nH]c4c(c23)CN(C(=O)CNC(=O)CCCC#Cc2ccc3c(c2)CN(C2CCC(=O)NC2=O)C3=O)CC4)n1 (centres undefined) | 25.6 | > 50 | > 50 | – | –
10 | Nc1cccc2c1CN(C1CCC(=O)NC1=O)C2=O (centres undefined) [LENALIDOMIDE] | – | > 50 | > 50 | – | 0.3
11 | Cn1ccc(-c2cc(Cl)c(Cl)c3[nH]c4c(c23)CN(C(=O)CNC(=O)CCCCCCCCNc2cccc3c2C(=O)N(C2CCC(=O)NC2=O)C3=O)CC4)n1 (centres undefined) | 30.4 | 37.1 | > 50 | – | –
12 | O=C1CCC(N2C(=O)c3cccc(NCCCCCC(=O)N4CC(Cn5cc(-c6cc(Cl)c(Cl)c7[nH]c8c(c67)CN(C(=O)CO)CC8)cn5)C4)c3C2=O)C(=O)N1 (centres undefined) | 36.3 | > 50 | > 50 | – | –
13 | Cn1ccc(-c2cc(Cl)c(Cl)c3[nH]c4c(c23)CN(C(=O)CNC(=O)CCCCCNc2cccc3c2C(=O)N(C2CCC(=O)NC2=O)C3=O)CC4)n1 (centres undefined) | 59.3 | 12.5 | 26.7 | – | –
14 | Cn1ccc(-c2cc(Cl)c(Cl)c3[nH]c4c(c23)CN(C(=O)CNC(=O)CCCCC#Cc2cccc3c2CN(C2CCC(=O)NC2=O)C3=O)CC4)n1 (centres undefined) | 57.7 | 8.8 | 15.1 | – | –
15 | O=C1CCC(N2C(=O)c3cccc(NCCOCCOCCOCC(=O)N4CCC(Cn5cc(-c6cc(Cl)c(Cl)c7[nH]c8c(c67)CN(C(=O)CO)CC8)cn5)CC4)c3C2=O)C(=O)N1 (centres undefined) | 13.9 | > 50 | > 50 | – | –
16 | Cn1ccc(-c2cc(Cl)c(Cl)c3[nH]c4c(c23)CN(C(=O)CNC(=O)CCCNc2cccc3c2C(=O)N(C2CCC(=O)NC2=O)C3=O)CC4)n1 (centres undefined) | 58.7 | 12.2 | 25.6 | – | –
17 | O=C1CCC(N2C(=O)c3cccc(NCCCCC(=O)N4CCC(Cn5cc(-c6cc(Cl)c(Cl)c7[nH]c8c(c67)CN(C(=O)CO)CC8)cn5)CC4)c3C2=O)C(=O)N1 (centres undefined) | 10.5 | > 50 | > 50 | – | –
18 | O=C1CCC(N2C(=O)c3cccc(NCCOCCOCC(=O)N4CCC(Cn5cc(-c6cc(Cl)c(Cl)c7[nH]c8c(c67)CN(C(=O)CO)CC8)cn5)CC4)c3C2=O)C(=O)N1 (centres undefined) | 44.3 | 33.6 | > 50 | – | –
19 | Cn1ccc(-c2cc(Cl)c(Cl)c3[nH]c4c(c23)CN(C(=O)CNC(=O)CCCCCC#Cc2cccc3c2CN(C2CCC(=O)NC2=O)C3=O)CC4)n1 (centres undefined) | 54.4 | 12.7 | 25.3 | – | –
20 | Cn1ccc(-c2cc(Cl)c(Cl)c3[nH]c4c(c23)CN(C(=O)CNC(=O)CC2CCN(C(=O)COc3cccc5c3C(=O)N(C3CCC(=O)NC3=O)C5=O)CC2)CC4)n1 (centres undefined) | 6.3 | > 50 | > 50 | – | –
21 | O=C1CCC(N2C(=O)c3cccc(NCCCCCC(=O)N4CCC(Cn5cc(-c6cc(Cl)c(Cl)c7[nH]c8c(c67)CN(C(=O)CO)CC8)cn5)CC4)c3C2=O)C(=O)N1 (centres undefined) | 57.7 | 20.5 | 39.8 | – | –
22 | Cn1ccc(-c2cc(Cl)c(Cl)c3[nH]c4c(c23)CN(C(=O)CNC(=O)COCCNc2cccc3c2C(=O)N(C2CCC(=O)NC2=O)C3=O)CC4)n1 (centres undefined) | 38.2 | 34.2 | > 50 | – | –
23 | Cn1ccc(-c2cc(Cl)c(Cl)c3[nH]c4c(c23)CN(C(=O)CNC(=O)CCCCCCCNc2cccc3c2C(=O)N(C2CCC(=O)NC2=O)C3=O)CC4)n1 (centres undefined) | 34.2 | 29.6 | > 50 | – | –
24 | Cn1ccc(-c2cc(Cl)c(Cl)c3[nH]c4c(c23)CN(C(=O)CNC(=O)COCCOCCOCCNc2cccc3c2C(=O)N(C2CCC(=O)NC2=O)C3=O)CC4)n1 (centres undefined) | 34.6 | 28.1 | > 50 | – | –

Now from value to compound, other results behind:

Row | Activity [1] [%] | IC50 [2] [µM] | IC50 [3] [µM] | Activity [4] | SMILES | Activity [5] [%]
25 | 20.5 | > 50 | > 50 | – | Cn1ccc(-c2cc(Cl)c(Cl)c3[nH]c4c(c23)CN(C(=O)CNC(=O)CCOCCOCCOCCOCCNc2cccc3c2C(=O)N(C2CCC(=O)NC2=O)C3=O)CC4)n1 (centres undefined) | –
26 | 23.9 | > 50 | > 50 | – | O=C1CCC(N2C(=O)c3cccc(NCCCCCCCCC(=O)N4CCC(Cn5cc(-c6cc(Cl)c(Cl)c7[nH]c8c(c67)CN(C(=O)CO)CC8)cn5)CC4)c3C2=O)C(=O)N1 (centres undefined) | –
27 | 12.4 | > 50 | > 50 | – | Cn1ccc(-c2cc(Cl)c(Cl)c3[nH]c4c(c23)CN(C(=O)CNC(=O)CCCCCCCCCNc2cccc3c2C(=O)N(C2CCC(=O)NC2=O)C3=O)CC4)n1 (centres undefined) | –
28 | 61.5 | 8.1 | 16.1 | – | Cn1ccc(-c2cc(Cl)c(Cl)c3[nH]c4c(c23)CN(C(=O)CNC(=O)CCCCNc2cccc3c2C(=O)N(C2CCC(=O)NC2=O)C3=O)CC4)n1 (centres undefined) | –
29 | 21.9 | > 50 | > 50 | – | Cn1ccc(-c2cc(Cl)c(Cl)c3[nH]c4c(c23)CN(C(=O)CNC(=O)CCCCC#Cc2ccc3c(c2)CN(C2CCC(=O)NC2=O)C3=O)CC4)n1 (centres undefined) | –
30 | 4.3 | > 50 | > 50 | – | Cn1ccc(-c2cc(Cl)c(Cl)c3[nH]c4c(c23)CN(C(=O)CNC(=O)CCCCCCCCCCCNc2cccc3c2C(=O)N(C2CCC(=O)NC2=O)C3=O)CC4)n1 (centres undefined) | –
31 | 57.7 | 21.4 | > 50 | – | Cn1ccc(-c2cc(Cl)c(Cl)c3[nH]c4c(c23)CN(C(=O)CNC(=O)CCCCCC#Cc2cccc3c2C(=O)N(C2CCC(=O)NC2=O)C3=O)CC4)n1 (centres undefined) | –
32 | 4.6 | > 50 | > 50 | – | O=C1CCC(N2C(=O)c3cccc(NCCOCCOCCOCCOCCOCCOCCOCCOCCC(=O)N4CCC(Cn5cc(-c6cc(Cl)c(Cl)c7[nH]c8c(c67)CN(C(=O)CO)CC8)cn5)CC4)c3C2=O)C(=O)N1 (centres undefined) | –
33 | 10.4 | > 50 | > 50 | – | O=C1CCC(N2C(=O)c3cccc(NCCOCCOCCOCCOCCOCCC(=O)N4CCC(Cn5cc(-c6cc(Cl)c(Cl)c7[nH]c8c(c67)CN(C(=O)CO)CC8)cn5)CC4)c3C2=O)C(=O)N1 (centres undefined) | –
34 | 18.7 | > 50 | > 50 | – | Cn1ccc(-c2cc(Cl)c(Cl)c3[nH]c4c(c23)CN(C(=O)CNC(=O)CN2CCN(C(=O)COc3cccc5c3C(=O)N(C3CCC(=O)NC3=O)C5=O)CC2)CC4)n1 (centres undefined) | –
35 | 46.8 | 27.4 | > 50 | – | Cn1ccc(-c2cc(Cl)c(Cl)c3[nH]c4c(c23)CN(C(=O)CNC(=O)COCCOCCNc2cccc3c2C(=O)N(C2CCC(=O)NC2=O)C3=O)CC4)n1 (centres undefined) | –
36 | 15.1 | > 50 | > 50 | – | Cn1ccc(-c2cc(Cl)c(Cl)c3[nH]c4c(c23)CN(C(=O)CNC(=O)CCN2CCN(C(=O)COc3cccc5c3C(=O)N(C3CCC(=O)NC3=O)C5=O)CC2)CC4)n1 (centres undefined) | –
37 | 18.9 | > 50 | > 50 | – | Cn1ccc(-c2cc(Cl)c(Cl)c3[nH]c4c(c23)CN(C(=O)CNC(=O)CCC2CCN(C(=O)COc3cccc5c3C(=O)N(C3CCC(=O)NC3=O)C5=O)CC2)CC4)n1 (centres undefined) | –
38 | 44.7 | 25.8 | > 50 | – | O=C1CCC(N2C(=O)c3cccc(NCCCCCCC(=O)N4CCC(Cn5cc(-c6cc(Cl)c(Cl)c7[nH]c8c(c67)CN(C(=O)CO)CC8)cn5)CC4)c3C2=O)C(=O)N1 (centres undefined) | –
39 | 20.4 | 38.8 | > 50 | – | Cn1ccc(-c2cc(Cl)c(Cl)c3[nH]c4c(c23)CN(C(=O)CNC(=O)CCCCCCCCCCNc2cccc3c2C(=O)N(C2CCC(=O)NC2=O)C3=O)CC4)n1 (centres undefined) | –
40 | 56.1 | 12.8 | 30.8 | – | Cn1ccc(-c2cc(Cl)c(Cl)c3[nH]c4c(c23)CN(C(=O)CNC(=O)CCCC#Cc2cccc3c2C(=O)N(C2CCC(=O)NC2=O)C3=O)CC4)n1 (centres undefined) | –
41 | 4.7 | > 50 | > 50 | – | O=C1CCC(N2C(=O)c3cccc(NCCCC(=O)N4CCC(Cn5cc(-c6cc(Cl)c(Cl)c7[nH]c8c(c67)CN(C(=O)CO)CC8)cn5)CC4)c3C2=O)C(=O)N1 (centres undefined) | –
42 | 40.4 | 25.6 | 35.6 | – | Cn1ccc(-c2cc(Cl)c(Cl)c3[nH]c4c(c23)CN(C(=O)CCCC#Cc2cccc3c2CN(C2CCC(=O)NC2=O)C3=O)CC4)n1 (centres undefined) | –
